Measured values published in the supplement of paper PMC10326909.

Assay: ESI positive response factor (isotope-corrected peak area per molar concentration) in SFC/ESI/HRMS (area units per M); higher = higher ionization efficiency
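Note: standards in acetonitrile/water run in triplicate on a zwitterionic HILIC column, CO2–methanol gradient containing 20 mmol/L ammonium acetate, postcolumn makeup flow, Orbitrap full-scan detection.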

CCOC(=O)CN1CCCC1=O [Ethyl 2-oxo-1-pyrrolidineacetate]
ESI positive response factor (0.0175 µM): 9.45e+16 | ESI positive response factor (0.035 µM): 9.95e+16 | ESI positive response factor (0.0875 µM): 9.42e+16

NC(N)=Nc1nc(CSCCC(N)=NS(N)(=O)=O)cs1 [Famotidin]
ESI positive response factor (0.0875 µM): 2.45e+16 | ESI positive response factor (0.175 µM): 3.25e+16 | ESI positive response factor (0.35 µM): 3.73e+16 | ESI positive response factor (0.875 µM): 3.76e+16 | ESI positive response factor (1.75 µM): 3.72e+16

CCOC(=O)NCCOc1ccc(Oc2ccccc2)cc1 [Fenoxycarb]
ESI positive response factor (0.0175 µM): 5.41e+17 | ESI positive response factor (0.035 µM): 5.89e+17 | ESI positive response factor (0.0875 µM): 5.34e+17

CNCCC(Oc1ccc(C(F)(F)F)cc1)c1ccccc1 (centres undefined) [Fluoxetine]
ESI positive response factor (0.0175 µM): 9.5e+16 | ESI positive response factor (0.035 µM): 1.16e+17 | ESI positive response factor (0.0875 µM): 1.1e+17 | ESI positive response factor (0.175 µM): 1.05e+17

NCC1(CC(=O)O)CCCCC1 [Gabapentin]
ESI positive response factor (0.244 µM): 2.98e+16 | ESI positive response factor (0.61 µM): 2.83e+16 | ESI positive response factor (1.22 µM): 3.28e+16

NC(=O)N=C(N)N [Guanylurea]
ESI positive response factor (0.244 µM): 2.7e+15 | ESI positive response factor (0.61 µM): 2.53e+15 | ESI positive response factor (1.22 µM): 2.64e+15

CC(Oc1ccc(Oc2ncc(C(F)(F)F)cc2Cl)cc1)C(=O)O (centres undefined) [Haloxyfop]
ESI positive response factor (0.244 µM): 5.62e+15 | ESI positive response factor (0.61 µM): 5.23e+15 | ESI positive response factor (1.22 µM): 4.69e+15

COc1ccc2c(c1)c(CC(=O)O)c(C)n2C(=O)c1ccc(Cl)cc1 [Indomethacin]
ESI positive response factor (0.122 µM): 1.45e+16 | ESI positive response factor (0.244 µM): 1.53e+16 | ESI positive response factor (0.61 µM): 1.99e+16

COCC(=O)Nc1c(I)c(C(=O)NCC(O)CO)c(I)c(C(=O)N(C)CC(O)CO)c1I (centres undefined) [Iopromide]
ESI positive response factor (0.61 µM): 1.19e+15 | ESI positive response factor (1.22 µM): 1.27e+15

O=C(O)[C@@H]1C[C@@H](O)CN1 [L-Hydroxyprolin]
ESI positive response factor (0.122 µM): 2.76e+15 | ESI positive response factor (0.244 µM): 3.07e+15 | ESI positive response factor (0.61 µM): 2.85e+15

N[C@@H](Cc1ccccc1)C(=O)O [L-Phenylalanin]
ESI positive response factor (0.122 µM): 1.51e+16 | ESI positive response factor (0.244 µM): 1.44e+16 | ESI positive response factor (0.61 µM): 1.27e+16

N[C@@H](Cc1ccc(O)cc1)C(=O)O [L-Tyrosine]
ESI positive response factor (0.061 µM): 2.58e+15 | ESI positive response factor (0.122 µM): 2.67e+15 | ESI positive response factor (0.244 µM): 3.05e+15

Nc1cccc2c1CN(C1CCC(=O)NC1=O)C2=O (centres undefined) [Lenalidomid]
ESI positive response factor (0.244 µM): 4.65e+14 | ESI positive response factor (0.61 µM): 5.58e+14 | ESI positive response factor (1.22 µM): 7.56e+14

CON(C)C(=O)Nc1ccc(Cl)c(Cl)c1 [Linuron]
ESI positive response factor (0.0122 µM): 4.3e+16 | ESI positive response factor (0.0244 µM): 3.86e+16 | ESI positive response factor (0.061 µM): 4.29e+16 | ESI positive response factor (0.122 µM): 4.05e+16 | ESI positive response factor (0.244 µM): 4.46e+16

NCCCC[C@H](N[C@@H](CCc1ccccc1)C(=O)O)C(=O)N1CCC[C@H]1C(=O)O [Lisinopril]
ESI positive response factor (0.0122 µM): 7.7e+15 | ESI positive response factor (0.0244 µM): 1.4e+16 | ESI positive response factor (0.061 µM): 1.89e+16 | ESI positive response factor (0.122 µM): 1.43e+16 | ESI positive response factor (0.244 µM): 1.58e+16

Nc1nc(N)nc(N)n1 [Melamine]
ESI positive response factor (0.0244 µM): 1.84e+16 | ESI positive response factor (0.061 µM): 2.07e+16 | ESI positive response factor (0.122 µM): 1.7e+16 | ESI positive response factor (0.244 µM): 1.82e+16

Cc1cccc(C)c1N(Cn1cccn1)C(=O)CCl [Metazachlor]
ESI positive response factor (0.0122 µM): 3.21e+17 | ESI positive response factor (0.0244 µM): 3.32e+17 | ESI positive response factor (0.061 µM): 3.05e+17 | ESI positive response factor (0.122 µM): 2.62e+17 | ESI positive response factor (0.244 µM): 2.65e+17

CC1(C)CCC(Cc2ccc(Cl)cc2)C1(O)Cn1cncn1 (centres undefined) [Metconazol]
ESI positive response factor (0.0122 µM): 3.22e+17 | ESI positive response factor (0.0244 µM): 3.52e+17 | ESI positive response factor (0.061 µM): 3.16e+17

CN(C)C(=N)N=C(N)N [Metformin]
ESI positive response factor (0.0244 µM): 4.62e+16 | ESI positive response factor (0.061 µM): 9.71e+16 | ESI positive response factor (0.122 µM): 9.59e+16 | ESI positive response factor (0.244 µM): 1.01e+17

CC(=O)C1=C(C)C2CC3(C1)C(C)CCC3C2(C)C (centres undefined) [Methyl cedryl ketone]
ESI positive response factor (0.122 µM): 1.43e+16 | ESI positive response factor (0.244 µM): 1.56e+16 | ESI positive response factor (0.61 µM): 1.43e+16 | ESI positive response factor (1.22 µM): 1.44e+16

C[N+]1(C)[C@H]2CC(OC(=O)C(CO)c3ccccc3)C[C@H]1[C@H]1O[C@H]12 (some centres undefined) [Methyl scopolamine]
ESI positive response factor (0.0175 µM): 6.75e+17 | ESI positive response factor (0.035 µM): 8.31e+17 | ESI positive response factor (0.0875 µM): 7.49e+17

Cn1sccc1=O [Methylisothiazolinone]
ESI positive response factor (0.61 µM): 9.58e+14 | ESI positive response factor (1.22 µM): 1.18e+15

CON(C)C(=O)Nc1ccc(Br)cc1 [Metobromuron]
ESI positive response factor (0.0122 µM): 2.18e+17 | ESI positive response factor (0.0244 µM): 2.29e+17 | ESI positive response factor (0.061 µM): 2.07e+17 | ESI positive response factor (0.122 µM): 1.95e+17

CCc1cccc(C)c1N(C(=O)CCl)C(C)COC (centres undefined) [Metolachlor]
ESI positive response factor (0.0122 µM): 4.41e+17 | ESI positive response factor (0.0244 µM): 5.34e+17 | ESI positive response factor (0.061 µM): 5.13e+17

CSc1nnc(C(C)(C)C)c(=O)n1N [Metribuzin]
ESI positive response factor (0.0122 µM): 2.83e+17 | ESI positive response factor (0.0244 µM): 2.15e+17 | ESI positive response factor (0.061 µM): 1.69e+17 | ESI positive response factor (0.122 µM): 1.54e+17 | ESI positive response factor (0.244 µM): 1.52e+17

OCCN1C[C@H](O)[C@@H](O)[C@H](O)[C@H]1CO [Miglitol]
ESI positive response factor (0.035 µM): 5.69e+15 | ESI positive response factor (0.0875 µM): 1e+16 | ESI positive response factor (0.175 µM): 1.1e+16 | ESI positive response factor (0.35 µM): 1.34e+16 | ESI positive response factor (0.875 µM): 1.42e+16 | ESI positive response factor (1.75 µM): 1.46e+16

N=c1nc(N2CCCCC2)cc(N)n1O [Minoxidil]
ESI positive response factor (0.0122 µM): 1.59e+17 | ESI positive response factor (0.0244 µM): 1.78e+17 | ESI positive response factor (0.061 µM): 1.77e+17 | ESI positive response factor (0.122 µM): 1.69e+17 | ESI positive response factor (0.244 µM): 1.72e+17
